Data set [1] has as its system Progesterone receptor mRNA. Kind of data set: Progesterone receptor mRNA regulation in the preoptic area of the rat brain. To be noted: 10 mg/kg. The format is in vivo.
Data set [2] deals with ovulation (number of oocytes ovulated). Briefly: Ovulation inhibition test procedure. Format: in vivo. To be noted: 50 mg/kg. The source says: The test procedure is used to determine whether test compounds can inhibit or change the timing of ovulation. It can also be used to determine the number of oocytes ovulated [Lundeen, et al., J Steroid Biochem Mol Biol 78: 137-143 (2001)]. The following data were obtained from representative metabolites of compounds from the invention (Table 22).

The next data set deals with Lewis rats. Kind of data set: Lewis rat adjuvant-induced arthritis, inhibition protocol: joint score (maximal score per day 12). Format: in vivo.
A short description of data set [3]: Microsomal incubation in the presence of UDPGA (glucuronidation). The format is in vitro ADME, rat. The settings on record: 100 μM, 37° C., 60 mins, with UDPGA. As for the experimental part:
An analytical scale incubation of ERB-041 with male SD rat liver microsomes in the presence of UDPGA was conducted in phosphate buffer (0.1 M, pH 7.4) containing 1 mg/mL rat liver microsomal protein with final concentrations of 5 mM magnesium chloride and 4 mM UDPGA. This pilot incubation (1.0 mL incubation volume) was conducted using a substrate concentration of 100 μM at 37° C. for 60 mins. Incubations were terminated by the addition of an equal volume of chilled acetonitrile. Large-scale incubations (a total of 37 incubations @ 5.0 mL incubation volume) to generate sufficient quantities of the glucuronide metabolites for structure elucidation were subsequently conducted as described above at 37° C. for 60 mins. Appropriate substrate controls and incubations without addition of UDPGA were also carried out. Reserved phase-HPLC was utilized for all metabolite analysis. To confirm the formation of glucuronide and sulfate conjugates of ERB-041 in pilot scale incubations, HPLC analysis was performed using an Agilent 1100 LC system equipped with a diode array detector (Agilent Technologies, Wilmington, Del.). […] Separation of the two metabolites was achieved using gradient solvent system B as described supra.

For data set [4], the system named is human endometrial tissue implanted into ovariectomized athymic nude mice. Briefly: Endometriosis test procedure: human endometrial tissue implanted into nude mice. The format is in vivo, mouse. The procedure:
This procedure is slightly modified from a published method [Bruner-Tran. et al., Journal of Clinical Investigation 99: 2851-2857 (1997)]. […] Lesions are allowed to establish for at least 10 days, then oral daily dosing begins and continues for at least 15 days. It should be noted that all mice have visible lesions at the start of dosing. At necropsy, the number of mice with lesions is determined, as well as the lesions per mouse.

Data set [5] can be described thus: Cytosolic incubation in the presence of PAPS (sulfation), human. Format: in vitro ADME. To be noted: 100 μM, 37° C., 60 mins, with PAPS; human liver cytosol. The procedure:
These pilot incubations (1.0 mL incubation volume) were conducted using a substrate concentration of 100 μM ERB-041 at 37° C. for 60 mins. Incubations were terminated by the addition of an equal volume of chilled acetonitrile. Reserved phase-HPLC was utilized for all metabolite analysis. To confirm the formation of glucuronide and sulfate conjugates of ERB-041 in pilot scale incubations, HPLC analysis was performed using an Agilent 1100 LC system equipped with a diode array detector (Agilent Technologies, Wilmington, Del.). […] Rat liver and human liver cytosol incubations produced similar profiles. […] Further confirmation of the identity of the isolated metabolites […] and M9 from the large-scale incubations was obtained using LC-MS analysis (ESI, negative ionization). In the large-scale incubation, approximately 23% of ERB-041 was converted to the two sulfate conjugates. Separation of the two sulfate metabolites was achieved using gradient solvent system C described supra.

A short description of data set [6]: Cytosolic incubation in the presence of PAPS (sulfation), rat. Format: in vitro ADME. The procedure:
These pilot incubations (1.0 mL incubation volume) were conducted using a substrate concentration of 100 μM ERB-041 at 37° C. for 60 mins. Incubations were terminated by the addition of an equal volume of chilled acetonitrile. Large-scale incubations (a total of 60 incubations @ 1.0 mL incubation volume) to generate sufficient quantities of the sulfate metabolites for structure elucidation were subsequently conducted as described above at 37° C. for 60 mins. Appropriate substrate controls and incubations without addition of PAPS were conducted. Additional incubations (a total of 120 @ 2.0 mL incubation volume, 50 μM ERB-041) were also conducted in a similar manner to isolate sufficient amounts of ERB-041-sulfates to enable full structural identification. Reserved phase-HPLC was utilized for all metabolite analysis. To confirm the formation of glucuronide and sulfate conjugates of ERB-041 in pilot scale incubations, HPLC analysis was performed using an Agilent 1100 LC system equipped with a diode array detector (Agilent Technologies, Wilmington, Del.). […] Rat liver and human liver cytosol incubations produced similar profiles. […] Further confirmation of the identity of the isolated metabolites […] and M9 from the large-scale incubations was obtained using LC-MS analysis (ESI, negative ionization). […]

Turning to `Oc1cc(Br)c2oc(-c3ccc(O)c(F)c3)nc2c1` [Example 21, 7-BROMO-2-(3-FLUORO-4-HYDROXYPHENYL)-1,3-BENZOXAZOL-5-OL], the “Progesterone receptor mRNA (mean ± stdev)” value in data set [1] is listed as 110.5 ± 19.3 arbitrary units.
On to `C=Cc1cc(O)cc2nc(-c3ccc(O)c(F)c3)oc12` [Example 24, 2-(3-FLUORO-4-HYDROXYPH ENYL)-7-VI NYL-1,3-BENZOXAZOL-5-OL], for which the “Number of oocytes (mean ± SEM)” value in data set [2] is listed as 13.86 ± 0.77. In addition, the Joint inflammation score in the data set on Lewis rats (s.c. daily from Day 1, Day 1) is 0.00; with Lewis rats (s.c. daily from Day 1, Day 2) it was 1.00; with Lewis rats (s.c. daily from Day 1, Day 3), 4.50; in the data set on Lewis rats (s.c. daily from Day 1, Day 4), 4.83; in the data set with Lewis rats (s.c. daily from Day 1, Day 5) it was 5.83; with Lewis rats (s.c. daily from Day 1, Day 6), 6.16. Also, the Joint inflammation score in the data set with Lewis rats (s.c. daily from Day 1, Day 7) is recorded as 6.16; in the data set on Lewis rats (s.c. daily from Day 1, Day 8), 5.33; with Lewis rats (s.c. daily from Day 1, Day 9) it was 5.66; in the data set with Lewis rats (s.c. daily from Day 1, Day 10), 4.33; with Lewis rats (s.c. daily from Day 1, Day 11), 3.16; in the data set on Lewis rats (s.c. daily from Day 1, Day 12), 3.16. Further, the Joint inflammation score in the data set with Lewis rats (s.c. daily from Day 1, Day 13) is given as 2.16; in the data set with Lewis rats (s.c. daily from Day 1, Day 14), 3.33; in the data set on Lewis rats (s.c. daily from Day 1, Day 15), 3.00; in the data set on Lewis rats (s.c. daily from Day 1, Day 16), 1.66; with Lewis rats (s.c. daily from Day 1, Day 17), 1.50. Also, the Metabolites detected result in data set [3] was “two major metabolites, M5 and M6, were detected”; in data set [5], “two metabolites (M9A and M9) were detected”; in data set [6] (100 μM, 37° C., 60 mins, with PAPS, rat liver cytosol), “two metabolites (M9A and M9) were detected”. Also, the “lesions at necropsy versus vehicle” value in data set [4] (10 mg/kg, evaluated three times) was “fewer lesions at necropsy than those mice dosed with vehicle”. In addition, the “lesions found per animal” value in data set [4] (Study 1, 10 mg/kg oral daily) is recorded as “one lesion”. In addition, the “mice with lesion regression” value in data set [4] (Study 1, 10 mg/kg oral daily) was “four of six mice”. For the same molecule, in data set [4] (Study 1, 10 mg/kg oral daily, vehicle: four of four mice), the “mice with any lesions at necropsy” value is “two of six mice”. Moreover, the “converted to the two sulfate conjugates” value in data set [6] (large-scale incubation with PAPS) was “approximately 23%”.

(Values after US20060046968A1, “Prodrug substituted benzoxazoles as estrogenic agents” (priority 2004, published 2006).)
